Measurements: patent publication US20040005997A1, “Methods for identifying compounds for regulating muscle mass of function using amylin receptors” (The Procter & Gamble Company, priority 2002, published 2004)

Columns and labels:
[1] = system: mouse sciatic nerve denervation atrophy model; experiment: mouse sciatic nerve denervation atrophy model; assay type: in vivo
Method: Legend: A—non-denervated medial gastrocnemius muscle from mice treated with physiological saline (non-atrophied control); B—denervated medial gastrocnemius muscle from mice treated with physiological saline (atrophied control); C—amylin (0.03 mg/kg)+theophylline; D—amylin (0.1 mg/kg)+theophylline; E—amylin (0.3 mg/kg)+theophylline. * —p≦0.05 compared to saline. Following denervation of the right sciatic nerve, male mice were injected subcutaneously in the midscapular region twice daily with amylin, at the doses indicated above or vehicle control (physiological saline) for nine days. […] On day nine, the medial gastrocnemius muscle was removed and weighed to determine the degree of atrophy.
The sciatic nerve denervation atrophy model involves anesthetizing the animal followed by the surgical removal of a short segment of either the right or left sciatic nerve, e.g., in mice the sciatic nerve is isolated approximately at the midpoint along the femur and a 3-5 mm segment is removed. This denervates the lower hind limb musculature resulting in atrophy of these muscles. Typically, innervation to the biceps femoris is left intact to provide satisfactory motion of the knee for virtually normal ambulation. […] The extent of atrophy in the affected muscles is analyzed, for example, by measuring muscle mass, muscle cross-sectional area, myofiber cross-sectional area or contractile protein content.

[2] = system: mouse glucocorticoid-induced atrophy model; experiment: mouse glucocorticoid-induced atrophy model; assay type: in vivo
Method: Legend: A—water only with no dexamethasone included in drinking water (non-atrophied control); B—water+dexamethasone (atrophied control); C—amylin (0.3 mg/kg/d)+theophylline+dexamethasone; D—amylin (1.0 mg/kg/d)+theophylline+dexamethasone; *—p≦0.05 compared to water; #—p≦0.05 compared to water+dexamethasone. Following the addition of the glucocorticoid, dexamethasone, to the drinking water (1.2 mg/kg/d), male mice were injected subcutaneously in the midscapular region twice daily with amylin, at the doses indicated above or vehicle control (physiological saline) for nine days. Amylin was co-administered with twice daily intra-peritoneal dosing of the phosphodiesterase inhibitor theophylline (30 mg/kg). Nine days following the initiation of dosing amylin, the medial gastrocnemius and tibialis anterior muscles were removed and weighed to determine the degree of atrophy.
The glucocorticoid-induced atrophy model involves the administration of a glucocorticoid to the test animal, e.g., 1.2 mg/kg/day of dexamethasone in the drinking water. Typically, in untreated animals, skeletal muscle mass is reduced 30-50% following ten days of dexamethasone administration. Concomitantly with, or following glucocorticoid administration, test compounds are administered e.g., by injection or by continuous infusion to determine their effect on glucocorticoid-induced skeletal muscle atrophy. At various times following glucocorticoid administration, the extent of atrophy in the affected muscles is analyzed as described above for the denervation model.

[3] = system: leg casting disuse atrophy model; experiment: leg casting disuse atrophy model; assay type: in vivo, mouse
Method: Legend: A—physiological saline (control); B—amylin (0.1 mg/kg)+theophylline; C—amylin (0.3 mg/kg)+theophylline; D—amylin (1.0 mg/kg)+theophylline; *—p≦0.05 compared to saline. Following casting of the right hind leg, male mice were injected subcutaneously in the midscapular region twice daily, with amylin or vehicle control (physiological saline) for ten days at the daily delivered dose indicated. Amylin was co-administered with twice daily intra-peritoneal dosing of the phosphodiesterase inhibitor theophylline (30 mg/kg). On day ten, the medial gastrocnemius and tibialis anterior muscles were removed and weighed to determine the degree of atrophy.
The leg casting disuse atrophy model involves casting one hind leg of an animal from the knee down through the foot. Typically, muscle mass is reduced 20-40% after ten days of casting. Following casting, test compounds are administered by injection or by continuous infusion via implantation of an osmotic minipump (e.g., Alzet, Palo Alto, Calif.) to determine their effect on leg casting induced skeletal muscle atrophy. At various times following leg casting, the extent of atrophy in the affected muscles is analyzed as described above for the denervation model.

[4] = system: human subject in a comatose state; experiment: prophylactic treatment of skeletal muscle atrophy in comatose state (Example 13); assay type: in vivo; settings: human 60 kg, 5 ml of 12 mg/ml amylin stock in 500 ml saline, slow i.v. infusion once each day
Method: A human subject weighing 60 kg is admitted to the hospital in a comatose state. The subject is treated by this method to prevent atrophy of the skeletal muscle of the entire body due to disuse in the comatose state. Specifically, once each day while in the coma, the subject is administered, via slow intravenous infusion, approximately 500 ml of an aqueous solution that is prepared by addition of 5 ml of the following stock solution to 500 ml of sterile saline: […]

| Compound | effect on skeletal muscle atrophy, theophylline administered alone ([1]; denervation model, theophylline alone) | effect on skeletal muscle atrophy, theophylline administered alone ([2]; glucocorticoid-induced model, theophylline alone) | effect on skeletal muscle atrophy, theophylline administered alone ([3]; casting disuse model, theophylline alone) | denervation-induced atrophy of the medial gastrocnemius muscle (muscle weight) ([1]; male mice, amylin 0.03, 0.1, 0.3 mg/kg s.c. twice daily + theophylline 30 mg/kg i.p. twice daily, nine days, FIG. 1) | glucocorticoid-induced atrophy of the tibialis anterior muscle (muscle weight) ([2]; male mice, dexamethasone 1.2 mg/kg/d in drinking water, amylin 0.3, 1.0 mg/kg/d s.c. twice daily + theophylline 30 mg/kg i.p., nine days, FIG. 2A) | glucocorticoid-induced atrophy of the medial gastrocnemius muscle (muscle weight) ([2]; male mice, dexamethasone 1.2 mg/kg/d in drinking water, amylin 0.3, 1.0 mg/kg/d s.c. twice daily + theophylline 30 mg/kg i.p., nine days, FIG. 2B) | disuse-induced (casting) atrophy of the tibialis anterior muscle (muscle weight) ([3]; male mice, casted right hind leg, amylin 0.1, 0.3, 1.0 mg/kg s.c. twice daily + theophylline 30 mg/kg i.p., ten days, FIG. 3A) | disuse-induced (casting) atrophy of the medial gastrocnemius muscle (muscle weight) ([3]; male mice, casted right hind leg, amylin 0.1, 0.3, 1.0 mg/kg s.c. twice daily + theophylline 30 mg/kg i.p., ten days, FIG. 3B) | hypertrophy of the tibialis anterior muscle of the non-casted leg ([3]; male mice, non-casted (normal) leg, amylin 0.1, 0.3, 1.0 mg/kg s.c. twice daily + theophylline 30 mg/kg i.p., ten days, FIG. 3A) | hypertrophy of the medial gastrocnemius muscle of the non-casted leg ([3]; male mice, non-casted (normal) leg, amylin 0.1, 0.3, 1.0 mg/kg s.c. twice daily + theophylline 30 mg/kg i.p., ten days, FIG. 3B) | skeletal muscle mass and function [4] |
| --- | --- | --- | --- | --- | --- | --- | --- | --- | --- | --- | --- |
| Cn1c(=O)c2[nH]cnc2n(C)c1=O [Theophylline, theophylline] | no effect | no effect | no effect | – | – | – | – | – | – | – | – |
| amylin (KCNTATCATQRLANFLVHSSNNFGAILSSTNVGSNTY; Islet amyloid polypeptide; UniProt P10997 34-70, looked up) [a 37 amino acid peptide; the ligand/agonist of the amylin receptors] | – | – | – | inhibits denervation-induced atrophy | inhibits glucocorticoid-induced muscle atrophy | inhibits glucocorticoid-induced muscle atrophy | inhibits disuse-induced atrophy | inhibits disuse-induced atrophy | statistically significant hypertrophy | statistically significant hypertrophy | measurable preservation of skeletal muscle mass and function |
